Measurements reported in the supplement of paper PMC11061612.

What was measured:
Test in all cases: combination Emax (second highest fraction inhibited in the dose matrix, 72 h); higher = more inhibition; extreme values may be limits of the assay
[1] = system: GR-ST (B-Lymphoblastic Leukemia)
Method in brief: (§1)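 Cell lines grown in DMEM/F12 or RPMI with 10% FBS were plated in 1536-well plates and held 24 hours at 37°C, 5% CO2 before 72 hours of exposure to two-drug dose matrices, with DMSO typically at 0.2%. CellTiter-Glo 2.0 luminescence gave viability, which was converted to inhibition. Vehicle wells were set to 0 and blank wells to 1. Combination Emax is the second-highest inhibition in the matrix, and Bliss excess is the observed combination effect minus the expected EA + EB − EA·EB, where EA and EB are the single-agent effects.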

[2] = system: MOLT-16 (T-Lymphoblastic Leukemia)
Method in brief: as §1

ES8 (Ewing's Sarcoma) = system: ES8 (Ewing's Sarcoma)
Method in brief: as §1

[3] = system: P12-ICHIKAWA (T-Lymphoblastic Leukemia)
Method in brief: as §1

[4] = system: HDQ-P1 (Breast Carcinoma)
Method in brief: as §1

[5] = system: BL-41 (Burkitt's Lymphoma)
Method in brief: as §1

[6] = system: MFM-223 (Breast Carcinoma)
Method in brief: as §1

[7] = system: COLO-678 (Colorectal Carcinoma)
Method in brief: as §1

[8] = system: KCL-22 (Chronic Myelogenous Leukemia)
Method in brief: as §1

[9] = system: NCI-H847 (Small Cell Lung Carcinoma)
Method in brief: as §1

[10] = system: NCI-H1792 (Lung Adenocarcinoma)
Method in brief: as §1

NCI-H2818 (Mesothelioma) = system: NCI-H2818 (Mesothelioma)
Method in brief: as §1

TC-71 (Ewing's Sarcoma) = system: TC-71 (Ewing's Sarcoma)
Method in brief: as §1

WM-115 (Melanoma) = system: WM-115 (Melanoma)
Method in brief: as §1

ES1 (Ewing's Sarcoma) = system: ES1 (Ewing's Sarcoma)
Method in brief: as §1

[11] = system: KM12 (Colorectal Carcinoma)
Method in brief: as §1

[12] = system: DND-41 (T-Lymphoblastic Leukemia)
Method in brief: as §1

LN-18 (Glioblastoma) = system: LN-18 (Glioblastoma)
Method in brief: as §1

[13] = system: SR (Other Blood Carcinomas)
Method in brief: as §1

[14] = system: DiFi (Colorectal Carcinoma)
Method in brief: as §1

Row | Structure (SMILES) | combination Emax [1] | combination Emax [2] | combination Emax (ES8 (Ewing's Sarcoma)) | combination Emax [3] | combination Emax [4] | combination Emax [5] | combination Emax [6] | combination Emax [7] | combination Emax [8] | combination Emax [9] | combination Emax [10] | combination Emax (NCI-H2818 (Mesothelioma)) | combination Emax (TC-71 (Ewing's Sarcoma)) | combination Emax (WM-115 (Melanoma)) | combination Emax (ES1 (Ewing's Sarcoma)) | combination Emax [11] | combination Emax [12] | combination Emax (LN-18 (Glioblastoma)) | combination Emax [13] | combination Emax [14]
1 | CN(CCO)CC[C@H](CSc1ccccc1)Nc1ccc(S(=O)(=O)NC(=O)c2ccc(N3CCC([C@@H](O)c4ccccc4-c4ccc(Cl)cc4)CC3)cc2)cc1S(=O)(=O)C(F)(F)F [AZD4320] + C[C@@H]1COCCN1C2=NC(=NC(=C2)C3(CC3)[S@](=N)(=O)C)C4=C5C=CNC5=NC=C4 [AZD6738] (first compound max 1 µM, 7x7, partner max 10 µM) | 0.745 | 1 | 1 | 1 | 0.745 | 1 | 0.842 | 0.11 | 0.976 | 1 | 0.777 | 0.567 | 1 | 0.769 | 0.942 | 0.764 | 1 | 0.847 | 0.982 | 0.954
2 | CN(CCO)CC[C@H](CSc1ccccc1)Nc1ccc(S(=O)(=O)NC(=O)c2ccc(N3CCC([C@@H](O)c4ccccc4-c4ccc(Cl)cc4)CC3)cc2)cc1S(=O)(=O)C(F)(F)F [AZD4320] + Cc1cc2ncnn2cc1Nc1ncc2c(n1)n(C1CCOCC1)c(=O)n2C [AZD7648] (first compound max 1 µM, 7x7, partner max 10 µM) | 0.371 | 1 | 0.57 | 1 | 0.522 | 0.203 | 0.223 | 0.105 | 0.462 | 1 | 0.287 | 0.364 | 0.593 | 0.489 | 0.355 | 0.226 | 1 | 0.204 | 0.393 | 0.784
3 | Cc1c2c(nn1C)CSCc1cc(n(C)n1)CSc1cc(c3ccccc3c1)OCCCc1c(C(=O)O)n(C)c3c-2c(Cl)ccc13 [AZD5991] + C1CN(CCC1(C(=O)N[C@@H](CCO)C2=CC=C(C=C2)Cl)N)C3=NC=NC4=C3C=CN4 [Capivasertib] (first compound max 1 µM, 7x7, partner max 3 µM) | 0.38 | 1 | 0.679 | 1 | 0.232 | 1 | 0.788 | 0.194 | 0.981 | 0.78 | 0.302 | 0.258 | 0.47 | 0.584 | 0.955 | 0.553 | 0.111 | 0.409 | 0.993 | 0.438
4 | Cc1c2c(nn1C)CSCc1cc(n(C)n1)CSc1cc(c3ccccc3c1)OCCCc1c(C(=O)O)n(C)c3c-2c(Cl)ccc13 [AZD5991] + CC1(C)CCC(CN2CCN(c3ccc(C(=O)NS(=O)(=O)c4ccc(NCC5CCOCC5)c([N+](=O)[O-])c4)c(Oc4cnc5[nH]ccc5c4)c3)CC2)=C(c2ccc(Cl)cc2)C1 [Venetoclax] (first compound max 1 µM, 7x7, partner max 1 µM) | 0.124 | 1 | 0.864 | 1 | 0.216 | 1 | 0.276 | 0.0393 | 0.928 | 0.98 | 0.379 | 0.387 | 0.831 | 0.59 | 0.93 | 0.173 | 0.418 | 0.374 | 0.964 | 0.624
5 | Cc1c2c(nn1C)CSCc1cc(n(C)n1)CSc1cc(c3ccccc3c1)OCCCc1c(C(=O)O)n(C)c3c-2c(Cl)ccc13 [AZD5991] + CCN(CCO)CCCOc1ccc2c(Nc3cc(CC(=O)Nc4cccc(F)c4)[nH]n3)ncnc2c1 [AZD2811] (first compound max 1 µM, 7x7, partner max 1 µM) | 0.336 | 1 | 1 | 1 | 0.159 | 1 | 0.574 | 0.227 | 0.921 | 0.973 | 0.314 | 0.287 | 0.848 | 0.232 | 0.983 | 0.249 | 0.21 | 0.701 | 0.988 | 0.859
6 | Cc1c2c(nn1C)CSCc1cc(n(C)n1)CSc1cc(c3ccccc3c1)OCCCc1c(C(=O)O)n(C)c3c-2c(Cl)ccc13 [AZD5991] + CN(C)CCCOc1ccc(-c2ccc3ncc4c(c3c2)n(C2CCOCC2)c(=O)n4C)cn1 [AZD0156] (first compound max 1 µM, 7x7, partner max 1 µM) | 0.502 | 1 | 0.385 | 0.994 | 0.195 | 1 | 0.238 | 0.152 | 0.926 | 0.57 | 0.345 | 0.355 | 0.463 | 0.244 | 0.753 | 0.27 | 0.158 | 0.514 | 0.96 | 0.252
